Experiments:
Assay type in all cases: cell-based
human SPPL2a [1] = target: T1, human SPPL2a (Homo sapiens, UniProt Q8TCT8); assay: Sppl2a TL (translocation) imaging assay in U-2 OS cells; set-up: expressed in transfected cells; conditions: U-2 OS cells expressing human SPPL2a and EGFP-TNFα(aa1-76) NTF substrate; 24 h
T1 sequence (Q8TCT8 26-520): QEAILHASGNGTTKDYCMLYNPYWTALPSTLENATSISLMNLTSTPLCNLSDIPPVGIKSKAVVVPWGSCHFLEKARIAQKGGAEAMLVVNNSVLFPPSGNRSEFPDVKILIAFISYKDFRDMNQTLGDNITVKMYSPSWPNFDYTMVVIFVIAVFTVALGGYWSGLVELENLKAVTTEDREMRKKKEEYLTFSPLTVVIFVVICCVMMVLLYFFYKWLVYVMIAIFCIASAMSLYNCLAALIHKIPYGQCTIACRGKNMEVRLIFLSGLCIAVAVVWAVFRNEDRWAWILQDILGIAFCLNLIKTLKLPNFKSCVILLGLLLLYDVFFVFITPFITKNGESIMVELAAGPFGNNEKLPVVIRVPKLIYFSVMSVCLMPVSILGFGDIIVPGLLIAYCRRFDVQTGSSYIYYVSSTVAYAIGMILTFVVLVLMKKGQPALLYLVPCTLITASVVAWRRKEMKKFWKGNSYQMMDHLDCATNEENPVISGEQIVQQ
How it was run: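 U-2 OS cells stably expressing human SPPL2a plus doxycycline-induced EGFP-TNFα(aa1-76) NTF, treated 24 h at 37 °C with inhibitor (100 μM–1 nM, 11 points, 0.9% DMSO, 5 μg/mL doxycycline). Imaging of nuclear-minus-cytoplasmic EGFP intensity; % inhibition versus 0.5 μM LY-411,575 and DMSO, IC50 by nonlinear regression; CC50 from cell count.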

human SPPL2a [2] = target: T1, human SPPL2a; assay: Sppl2a RGA (reporter gene assay) in HEK293 cells; set-up: expressed in transfected cells; host or cells: HEK293 (transient); conditions: NT-TNF-VP16-Gal4 substrate, Gal4-luciferase reporter, 24 h
How it was run: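 HEK293 cells transiently co-transfected with human SPPL2a, NT-TNF-VP16-Gal4 substrate and Gal4-luciferase reporter, compound added within 5 h. After 24 h at 37 °C, luciferase luminescence measured; IC50 from concentration versus normalized luminescence.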

γ-secretase = γ-secretase (Homo sapiens, UniProt P49768); assay: γ-secretase RGA (reporter gene assay, Notch1 substrate) in HEK293 cells; conditions: Notch1-VP16-Gal4 substrate, Gal4-luciferase reporter, 24 h, read-out: g-secretase RGA IC50
From the text: The assay is based on the coupling of the proteolytic degradation of a membrane bound synthetic substrate, a VP16-Gal4 fusion protein with Notch1, which migrates to the nucleus upon cleavage, where it activates Gal4 driven expression of luciferase. […] The luciferase dependent-luminescence is plotted against the concentrations of compound to generate a dose response curve, which allows the calculation of the IC50 value. DNA vectors encoding human Notch1-VP16-Gal4 and a Gal4-luciferase reporter were transiently transfected in HEK293 cells, which express γ-secretase components endogenously. In a typical experiment 10 μg plasmid encoding the reporter Gal4-luciferase and 20 μg plasmid encoding the substrate Notch1-VP16-Gal4 were mixed together. The DNA mixture was combined with 107 μl FuGENE® (Promega), 735 μl Opti-MEM® (Life Technologies) and incubated for 5 minutes at RT. To this mixture 20 mL of concentrated HEK293 cells were added and thoroughly mixed. The cell suspension was distributed to a white solid 384 well plate. Within hours, 50 nl of compound in DMSO was stamped into the wells via pintool. […] After incubation at room temperature for 5 min, the plate was transferred to a luminometer and the luminescence was measured. The IC50 was determined by plotting compound concentration vs. normalized luminescence values.

Sppl2a CD74 = target: T2, Sppl2a CD74 (Mus musculus, UniProt Q9JJF9); assay: CD74/p8 mouse whole blood assay, flow cytometry format; conditions: Balb/c mouse whole blood, 5 h, CD74 signal on gated live B cells
T2 construct: Mouse whole blood Balb/c mice (sodium citrate) was ordered by Bioreclamation LLC; tissue Bioreclamation LLC
T2 sequence (Q9JJF9 26-523): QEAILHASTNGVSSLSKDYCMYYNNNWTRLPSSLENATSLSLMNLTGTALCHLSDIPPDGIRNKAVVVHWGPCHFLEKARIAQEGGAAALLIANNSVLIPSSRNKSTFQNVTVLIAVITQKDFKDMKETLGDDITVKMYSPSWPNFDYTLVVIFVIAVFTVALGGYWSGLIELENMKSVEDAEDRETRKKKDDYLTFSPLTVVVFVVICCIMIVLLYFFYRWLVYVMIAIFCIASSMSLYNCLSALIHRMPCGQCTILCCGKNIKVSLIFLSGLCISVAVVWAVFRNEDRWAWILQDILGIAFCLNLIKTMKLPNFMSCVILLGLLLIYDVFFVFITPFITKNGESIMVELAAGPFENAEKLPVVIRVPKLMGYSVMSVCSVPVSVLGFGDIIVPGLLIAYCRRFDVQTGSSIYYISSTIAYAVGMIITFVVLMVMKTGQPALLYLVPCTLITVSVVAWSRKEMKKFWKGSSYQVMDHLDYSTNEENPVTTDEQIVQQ
How it was run: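 Balb/c mouse whole blood (citrate) incubated 5 h at 37 °C with compounds, 11-point dilution from 30 μM top. After RBC lysis, live B220+ B cells stained intracellularly for CD74 (FITC) and analysed by flow cytometry. IC50 fitted from CD74 median fluorescence intensity.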

IC50 (human SPPL2a [1]) [nM]	IC50 (human SPPL2a [2]) [nM]	IC50 (Sppl2a CD74) [nM]	Compound	IC50 (γ-secretase) [nM]
5	4	280	CCNC(=O)c1nc(C)c(C(=O)NC[C@H](C(=O)N[C@@H]2C(=O)N3CCCN3Cc3ccccc32)C2CC2)s1 [Example 12, N^5-((R)-2-Cyclopropyl-3-oxo-3-(((S)-11-oxo-2,3,10,11-tetrahydro-1H,5H-benzo[d]pyrazolo [1,2-a][1,2]diazepin-10-yl)amino)propyl)-N^2-ethyl-4-methylthiazole-2,5-dicarboxamide]	
17	123	1520	C[C@H](CC(=O)Nc1cc(C(=O)NC2CC2)nn1C)C(=O)N[C@@H]1C(=O)N2CCCN2Cc2ccccc21 [Example 102, (R)-N^4-(3-(Cyclopropylcar-bamoyl)-1-methyl-1H-pyrazol-5-yl)-2-methyl-N^1-((S)-11-oxo-2,3,10,11-tetrahydro-1H,5H-benzo[d]pyrazolo [1,2-a][1,2]diazepin-10-yl)succinamide]	

Compound	IC50 (human SPPL2a [1]) [nM]	IC50 (human SPPL2a [2]) [nM]	IC50 (Sppl2a CD74) [nM]	IC50 (γ-secretase) [nM]
3,4-Dimethyl-N- ((R)-2-(((S)-11- oxo-2,3,10,11- tetrahydro- 1H,5H- benzo[d]pyrazolo [1,2- a][1,2]diazepin- 10- yl)carbamoyl)pen- tyl)isoxazole-5- carboxamide [Example 33]	37	7		> 10000

Reference: patent publication US20230365571A1, “COMPOUNDS AND COMPOSITIONS AS Sppl2a INHIBITORS” (Novartis AG, priority 2020, published 2023)
